Here are results for eight molecules from patent US11607461B2, “Compositions and methods for genetically modifying myosin phosphatase target subunit (Mypt1) gene for lowering blood pressure” (University of Maryland, Baltimore, priority 2016, dated 2023).

The test system of data set [1] is First-order mesenteric arteries (MA1). Description: Wire myography: relaxation to 8-Br-cGMP of α-toxin permeabilized, calcium-clamped arteries. On the set-up: species or system mouse. To be noted: for EC50: α-toxin permeabilized, pCa6. An excerpt: (§1) First-order mesenteric arteries (2 mm length; 200-250 μm ID) were dissected free of connective tissue in a HEPES-bicarbonate physiological saline solution containing the following concentrations (in mM): 112 NaCl, 25.7 NaHCO3, 4.9 KCl, 2.0 CaCl2, 1.2 MgSO4, 1.2 KH2PO4, 11.5 glucose, and 10 HEPES. The solution was at pH 7.4 and maintained at 37 C for experiments. Arteries were mounted on a 4-chamber wire myograph (Model 610M, Danish Myo Technology, Aarhus, Denmark). Force was continuously recorded and measured at steady state. Starting tension (IC90) was equally applied to all arteries as previously described (Reho et al., Am J Physiol Heart Circ Physiol 307: H563-573, 2014). Arteries were then primed with 2 separate dose of phenylephrine (10 μM) and allowed to equilibrate for 20 minutes in fresh, heated HEPES-bicarbonate buffer. Intact arteries were subjected to dose response to phenylephrine (α-adrenergic agonist; 1 nM-100 μM), U46619 (thromboxane mimetic; 1 nM-10 μM), and angiotensin II (1 nM-10 μM). Maximal response of MAs to depolarization was assessed with 100 mM KCl. A subset of arteries was permeabilized with α-toxin (1000 U/mL) and subjected to calcium clamp in high relaxing solution (pCa9) containing the following (in mM): 60 KMS, 5 EGTA, 0.02 CaCl2, 9.26 MgCl2, 5.2 Na2ATP, 25 creatine phosphate, and 25 BES with pH 7.1 (intracellular pH) by 1N KOH. Permeabilized arteries were subjected to dose response of calcium. Phenylephrine-induced calcium sensitization was performed under calcium clamp at a sub-maximal concentration of calcium (pCa6; 1 μM) with intracellular calcium stores depleted by preincubation of arteries with 10 μM A-23187. Vessels were activated with 10 μM phenylephrine with or without preincubation with L-NAME (100 μM). Vasorelaxation responses to the NO donor DEA/NO were assessed in intact arteries activated with a sub-maximal concentration of phenylephrine (10 μM). Dose response to 8-Br-cGMP (1 nM-100 μM) were assessed in α-toxin permeabilized, calcium-clamped (pCa6; 1 μM) arteries. Relaxation data are presented as percent of maximal force. All chemicals were purchased from Sigma-Aldrich (St Louis, Mo.).
(§2) All data are presented as means±SEM. Data were analyzed and graphed using SigmaPlot software (SYSTAT, Chicago, Ill.). mRNA and protein data and mean arterial pressures were analyzed using a one way ANOVA. Vascular function data were analyzed via One way ANOVA and a Bonferroni post-hoc test or Two way repeated measures ANOVA and a Bonferroni post-hoc test. EC50 were calculated via standard curve analysis. Significance was accepted with a p<0.05.

The test system is the same in data set [2]. Description: Wire myography: vasorelaxation to DEA/NO of intact arteries activated with phenylephrine. Further details: species or system mouse. To be noted: for EC50: pre-constriction with PE 10 μM, read-out: EC50 relaxation to DEA/NO.
Excerpt: as §1, with “Permeabilized arteries were subjected to dose response of calcium. Phenylephrine-induced calcium sensitization was performed under calcium clamp at a sub-maximal concentration of calcium (pCa6; 1 μM) with intracellular calcium stores depleted by preincubation of arteries with 10 μM A-23187. Vessels were activated with 10 μM phenylephrine with or without preincubation with L-NAME (100 μM).” left out, “Relaxation data are presented as percent of maximal force. All chemicals were purchased from Sigma-Aldrich (St Louis, Mo.).” left out
All data are presented as means±SEM. Data were analyzed and graphed using SigmaPlot software (SYSTAT, Chicago, Ill.). mRNA and protein data and mean arterial pressures were analyzed using a one way ANOVA. Vascular function data were analyzed via One way ANOVA and a Bonferroni post-hoc test or Two way repeated measures ANOVA and a Bonferroni post-hoc test. EC50 were calculated via standard curve analysis. […]

The test system is the same in data set [3]. Description: Wire myography: force generation, dose response to phenylephrine in intact arteries. The settings on record: Mus musculus, read-out: EC50 force generation to PE.
Excerpt: as §1, §2

Data set [4] deals with PPP1R12A (Mypt1) exon 24 flanking region. Description: Surveyor nuclease assay on genomic PCR products of transfected HEK293T cells. The data set is classed as cell-based, human. The settings on record: constructs tested individually; for Surveyor nuclease products (sizes): control ~750 bp. Here is the method: HEK293T cells were seeded at a density of 1×10^5 cells/well in 24-well plates. After 24 hours, while cell confluence reached approximately 80%, cells were transfected with 1µg of sgRNA-px601 vector (experimental conditions) or px601 vector (empty vector) or pIRES-EYFP vector (positive transfection control). All transfections were performed in duplicates using Lipofectamine® 3000 Reagent (Life Technologies/ThermoFisher Scientific, Waltham, Mass.) according to the manufacturer's protocol. Twenty-four hours after transfection, a volume of 0.5 mL of culture medium was added per well (reaching a total volume of 1 mL per well). Cells were harvested 72 hours after transfection; culture medium was removed, cells were trypsinized using Gibco™ TrypLE™ Express (Life Technologies/ThermoFisher Scientific), pelleted and cell pellets were stored at −20° C. The transfection efficiency was evaluated immediately prior to harvesting of cells, by inspection of HEK293T cells transfected with pIRES-EYFP vector using a Leica MZ-FLIII fluorescence microscope equipped with a GFP filter set (Leica Microscopy Systems Ltd., Heerbrugg, Switzerland).
Genomic DNA was purified from the transfected cells using PureLink™ Genomic DNA Mini Kit (Invitrogen/ThermoFisher Scientific, Waltham, Mass.) as per the manufacturer's protocol. In order to investigate if genome editing occurred, locus PCR amplifying a 754 pb-region flanking the exon 24 of PPP1R12A gene was performed using primers MYPT12AE24F 5′-[…]-3′ (SEQ ID NO:3) (intronic region 155894 bp to 155913 bp on PPP1R12A ENSG00000058272) and MYPT12AE24R 5′-[…]-3′ (SEQ ID NO:4) (intronic region 156626 bp to 156647 bp on PPP1R12A ENSG00000058272). PCR conditions were as follows: 95° C. 5 min, then 95° C. 30 s, 53° C. 45 s, 72° C. 60 s for 30 cycles, with 5 min of final extension step at 72° C. PCR products were resolved by 2% agarose gel electrophoresis. When PCR product size was shorter than the control PCR product, genome editing occurred. For PCR products that could not be separated from the control product on 2% agarose gel due to the low resolution of the gel, a surveyor nuclease assay was performed using the Surveyor® Mutation Detection Kit (Integrated DNA Technologies, Coralville, Iowa) as per manufacturer's protocol for better visualization of the edits. The Surveyor® Mutation Detection Kit uses an endonuclease that cleaves DNA with high specificity at sites of mismatches and other distortions, allowing the detection of known and unknown DNA mutations. Briefly, target DNA is amplified by PCR from both wild-type (WT) and mutated DNA, WT and mutant DNA are then hybridized to form heteroduplexes, which are subsequently cleaved by the surveyor endonuclease. When no mutation is present, only homoduplexes are formed and no endonuclease-mediated cleavage is observed.

Setting [5] is: E24 cKO MA1s, highest concentration.

For the molecule `Nc1nc2c(nc(Br)n2[C@@H]2O[C@@H]3COP(=O)(O)O[C@H]3[C@H]2O)c(=O)[nH]1` [8-Br-cGMP, 8-bromo-cGMP], the EC50 in data set [1] (CON mice) was found to be 95.2 ± 11 nM; in data set [1] (E24 F/+), 3 ± 2.5 nM; in data set [1] (E24 F/F), 6 ± 1.5 nM. The “maximal response to 8-Br-cGMP” value in data set [1] (setting [5]) is reported as “complete relaxation”.
As for `CCN(CC)/[N+]([O-])=N/[O-].[Na+]` [DEA/NO], the EC50 in data set [2] (E24 F/+ (cKO heterozygotes)) was 3.3 ± 0.5 nM; in data set [2] (E24 F/F (cKO homozygotes)), 2.1 ± 0.5 nM. Also, in data set [2] (setting [5]), the “maximal response to DEA/NO” value is “complete relaxation”.
On to `CNC[C@H](O)c1cccc(O)c1` [PE, phenylephrine], for which the EC50 in data set [3] (336 h, CON+HS (high salt 4% NaCl, 2 weeks)) was determined as 1000 ± 500 nM; in data set [3] (CON mice) it was 500 ± 100 nM; in data set [3] (CON+NS (normal salt diet)) it was 900 ± 400 nM; in data set [3] (E24 F/+), 600 ± 200 nM; in data set [3] (E24 F/F+HS), 3000 ± 1000 nM; in data set [3] (E24 F/F+NS), 400 ± 200 nM. Also, the EC50 in data set [3] (E24 F/F) turned out to be 900 ± 200 nM.

B1: sgRNA9: guide RNA, target … (SEQ ID NO: 13); tested cloned in px601 SaCas9 plasmid (nucleic acid)
guide: GAGAAUGCUUAUCAUUUAAGGGUUUUAGUACUCUGGAAACAGAAUCUACUAAAACAAGGCAAAAUGCCGUGUUUAUCUCGUCAACUUGUUGGCGAGAUUUUU
Regarding B1, in data set [4], the “genome editing in vitro (in words)” value was “effective genome editing” and the “Surveyor nuclease products (sizes)” value is recorded as 330/420.

B2: sgRNA6: guide RNA, target … (SEQ ID NO: 10); tested cloned in px601 SaCas9 plasmid (nucleic acid)
guide: GUAUCUGAAAGGUGACCGGCGUUUUAGUACUCUGGAAACAGAAUCUACUAAAACAAGGCAAAAUGCCGUGUUUAUCUCGUCAACUUGUUGGCGAGAUUUUU
Regarding B2, in data set [4], the “genome editing in vitro (in words)” value is “effective genome editing” and the “Surveyor nuclease products (sizes)” value is on record as 250/500.

B3: sgRNA5: guide RNA, target … (SEQ ID NO: 9); tested cloned in px601 SaCas9 plasmid (nucleic acid)
guide: GCAUUAUUUAUUAAUCUGGGAGUUUUAGUACUCUGGAAACAGAAUCUACUAAAACAAGGCAAAAUGCCGUGUUUAUCUCGUCAACUUGUUGGCGAGAUUUUU
Regarding B3, in data set [4], the “genome editing in vitro (in words)” value was “effective genome editing” and the “Surveyor nuclease products (sizes)” value is listed as 120/630.

B4: sgRNA12: guide RNA, target … (SEQ ID NO: 16); tested cloned in px601 SaCas9 plasmid (nucleic acid)
guide: GAUACAAAGCUAUAAAGUCAGGUUUUAGUACUCUGGAAACAGAAUCUACUAAAACAAGGCAAAAUGCCGUGUUUAUCUCGUCAACUUGUUGGCGAGAUUUUU
With B4, in data set [4], the “genome editing in vitro (in words)” value is listed as “effective genome editing” and the “Surveyor nuclease products (sizes)” value is on record as 270/480.

B5: sgRNA11: guide RNA, target … (SEQ ID NO: 15); tested cloned in px601 SaCas9 plasmid (nucleic acid)
guide: GUUAUGUGUAGCAUUAAUGCAGUUUUAGUACUCUGGAAACAGAAUCUACUAAAACAAGGCAAAAUGCCGUGUUUAUCUCGUCAACUUGUUGGCGAGAUUUUU
Regarding B5, in data set [4], the “genome editing in vitro (in words)” value is listed as “effective genome editing” and the “Surveyor nuclease products (sizes)” value is recorded as 320/430.
